The values below come from patent US20250215012A1, “IKZF2 DEGRADERS AND USES THEREOF” (REGENTS OF THE UNIVERSITY OF MICHIGAN, priority 2022, published 2025).

What is called DC50 is the concentration at which degradation of the target reaches its halfway point. A word on the Dmax: it is the greatest extent of degradation seen.

This assay deals with IKZF2 (Homo sapiens (Human), UniProt Q96SW2+Q9UKS7). Kind of assay: IKZF2 HiBiT Assay (Jurkat-IKZF2-HiBiT cell line). It counts as cell-based. As to conditions: Jurkat-IKZF2-HiBiT cells, 24 hours; for DC50: read-out: HiBit assay degradation analysis DC50; for Dmax: read-out: HiBit assay degradation analysis Dmax. An outline of the steps:
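Jurkat cells carrying HiBiT-tagged IKZF2 were exposed to serially diluted compound for 24 h at 37 °C. Remaining IKZF2 was measured by Nano-Glo HiBiT lytic luminescence after 10-20 min at room temperature. Signal was normalized to DMSO, and IC50 came from a four-parameter variable-slope fit.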
On the technique in general: With HiBiT, luminescence reflects the tagged protein that the partner subunit can reach.

IKZF2, sequence (Q9UKS7 whole entry): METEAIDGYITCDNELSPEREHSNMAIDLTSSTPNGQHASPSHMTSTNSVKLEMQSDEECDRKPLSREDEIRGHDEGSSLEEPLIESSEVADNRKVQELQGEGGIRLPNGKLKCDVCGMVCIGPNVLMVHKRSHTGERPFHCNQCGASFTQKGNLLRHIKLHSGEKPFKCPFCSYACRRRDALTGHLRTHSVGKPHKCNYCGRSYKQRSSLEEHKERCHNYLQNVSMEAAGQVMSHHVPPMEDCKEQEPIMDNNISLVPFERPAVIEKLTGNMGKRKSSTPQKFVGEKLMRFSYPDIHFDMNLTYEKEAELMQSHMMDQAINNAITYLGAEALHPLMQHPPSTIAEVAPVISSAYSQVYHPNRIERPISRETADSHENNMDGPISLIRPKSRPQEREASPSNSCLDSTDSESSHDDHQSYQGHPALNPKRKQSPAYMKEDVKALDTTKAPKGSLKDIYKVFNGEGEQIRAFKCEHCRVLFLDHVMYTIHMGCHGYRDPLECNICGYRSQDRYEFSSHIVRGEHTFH
IKZF2, sequence (Q96SW2 whole entry): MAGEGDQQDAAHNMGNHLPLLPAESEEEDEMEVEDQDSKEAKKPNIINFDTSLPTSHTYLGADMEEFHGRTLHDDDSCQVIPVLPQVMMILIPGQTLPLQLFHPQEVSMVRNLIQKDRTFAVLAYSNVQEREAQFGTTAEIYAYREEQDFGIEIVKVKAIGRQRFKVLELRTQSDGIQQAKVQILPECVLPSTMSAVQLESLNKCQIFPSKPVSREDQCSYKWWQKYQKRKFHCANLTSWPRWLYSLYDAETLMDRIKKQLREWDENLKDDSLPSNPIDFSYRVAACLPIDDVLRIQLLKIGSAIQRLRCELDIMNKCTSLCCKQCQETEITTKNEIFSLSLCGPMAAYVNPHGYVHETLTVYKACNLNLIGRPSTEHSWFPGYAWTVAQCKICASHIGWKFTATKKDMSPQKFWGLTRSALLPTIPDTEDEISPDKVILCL
IKZF2, sequence (Q16531 whole entry partner): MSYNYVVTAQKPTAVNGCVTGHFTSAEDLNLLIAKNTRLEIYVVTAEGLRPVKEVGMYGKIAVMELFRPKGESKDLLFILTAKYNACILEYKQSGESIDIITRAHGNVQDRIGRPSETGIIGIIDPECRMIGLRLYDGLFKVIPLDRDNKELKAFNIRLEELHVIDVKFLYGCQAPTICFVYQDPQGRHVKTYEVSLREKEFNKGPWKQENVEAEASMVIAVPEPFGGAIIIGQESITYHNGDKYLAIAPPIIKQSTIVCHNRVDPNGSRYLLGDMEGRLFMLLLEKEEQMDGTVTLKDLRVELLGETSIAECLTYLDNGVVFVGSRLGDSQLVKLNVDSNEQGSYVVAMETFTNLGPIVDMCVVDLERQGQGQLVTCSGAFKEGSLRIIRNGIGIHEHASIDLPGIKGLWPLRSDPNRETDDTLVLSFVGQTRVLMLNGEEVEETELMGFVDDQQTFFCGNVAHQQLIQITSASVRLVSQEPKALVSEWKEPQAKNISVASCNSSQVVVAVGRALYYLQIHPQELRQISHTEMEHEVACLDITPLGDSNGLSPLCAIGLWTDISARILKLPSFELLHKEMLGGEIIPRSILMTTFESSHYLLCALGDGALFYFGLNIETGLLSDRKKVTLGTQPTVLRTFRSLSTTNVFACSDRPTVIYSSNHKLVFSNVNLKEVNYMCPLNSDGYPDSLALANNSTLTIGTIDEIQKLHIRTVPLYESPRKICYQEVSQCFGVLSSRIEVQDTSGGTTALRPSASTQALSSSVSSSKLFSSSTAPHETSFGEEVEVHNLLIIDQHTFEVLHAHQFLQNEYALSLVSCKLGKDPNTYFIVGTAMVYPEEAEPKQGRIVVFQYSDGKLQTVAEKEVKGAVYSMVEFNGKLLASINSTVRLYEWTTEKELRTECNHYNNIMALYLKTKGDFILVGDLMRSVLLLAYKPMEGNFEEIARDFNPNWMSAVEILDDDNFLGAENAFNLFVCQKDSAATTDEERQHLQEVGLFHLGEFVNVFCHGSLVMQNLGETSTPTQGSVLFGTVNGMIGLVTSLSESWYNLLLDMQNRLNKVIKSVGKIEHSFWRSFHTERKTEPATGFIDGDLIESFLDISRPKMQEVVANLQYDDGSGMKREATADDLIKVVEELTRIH

In the case of `O=C1CCC(N2Cc3c(ccc4c3OCC43CCN(Cc4cnn(S(=O)(=O)c5ccccc5F)c4)CC3)C2=O)C(=O)N1` (centres unmarked) [Compound A337, 3-(1′-((1-((2-fluorophenyl)sulfonyl)-1H-pyrazol-4-yl)methyl)-6-oxo-6,8-dihydro-2H,7H-spiro[furo[2,3-e]isoindole-3,4′-piperidin]-7-yl)piperidine-2,6-dione], the DC50 was in the range of 0.05 to 0.2 µM and the Dmax was in the range of 60 to 80%. On to `Cn1ncc(-c2cccc(CN3CCC4(CC3)COc3c4ccc4c3CN([C@H]3CCC(=O)NC3=O)C4=O)c2)n1` [Compound A296, (S)-3-(1′-(3-(2-methyl-2H-1,2,3-triazol-4-yl)benzyl)-6-oxo-6,8-dihydro-2H,7H-spiro[furo[2,3-e]isoindole-3,4′-piperidin]-7-yl)piperidine-2,6-dione], for which the 50% degradation concentration (DC50) is under 0.05 µM and the Dmax lay within 60 to 80%. Take `O=C1CCC(N2Cc3c(ccc4c3OCC43CCN(Cc4cccc(-c5ccccn5)c4)CC3)C2=O)C(=O)N1` (centres unmarked) [Compound A103, 3-(6-oxo-1′-(3-(pyridin-2-yl)benzyl)-6,8-dihydro-2H,7H-spiro[furo[2,3-e]isoindole-3,4′-piperidin]-7-yl)piperidine-2,6-dione]: the DC50 lay in the range of 0.2 to 0.5 µM and the greatest degradation seen (Dmax) lay in the range of 40 to 60%. As for `O=C1CCC(N2Cc3c(ccc4c3OCC43CCN(Cc4ccn(-c5ccccc5Cl)n4)CC3)C2=O)C(=O)N1` (centres unmarked) [Compound A321, 3-(1′-((1-(2-chlorophenyl)-1H-pyrazol-3-yl)methyl)-6-oxo-6,8-dihydro-2H,7H-spiro[furo[2,3-e]isoindole-3,4′-piperidin]-7-yl)piperidine-2,6-dione], the DC50 was over 0.5 µM and the Dmax was under 40%.

In the case of `O=C1CCC(N2Cc3c(ccc4c3OCC43CCN(Cc4cccc5cc[nH]c45)CC3)C2=O)C(=O)N1` (centres unmarked) [Compound A59, 3-(1′-((1H-indol-7-yl)methyl)-6-oxo-6,8-dihydro-2H,7H-spiro[furo[2,3-e]isoindole-3,4′-piperidin]-7-yl)piperidine-2,6-dione], the half-maximal degradation concentration (DC50) lay within 0.05 to 0.2 µM and the Dmax is over 80%.

As for `O=C1CCC(N2Cc3c(ccc4c3OCC43CCN(Cc4nn(CC5CCCCC5)c5ccccc45)CC3)C2=O)C(=O)N1` (centres unmarked) [Compound A329, 3-(1′-((1-(cyclohexylmethyl)-1H-indazol-3-yl)methyl)-6-oxo-6,8-2H,7H-spiro[furo[2,3-e]isoindole-3,4′-piperidin]-7-yl)piperidine-2,6-dione], the DC50 lay in the range of 0.05 to 0.2 µM and the Dmax was 60 to 80%. For the compound `O=C1CCC(N2Cc3c(ccc4c3OCC43CCN(Cc4csc(-c5ccccc5)n4)CC3)C2=O)C(=O)N1` (centres unmarked) [Compound A82, 3-(6-oxo-1′-((2-phenylthiazol-4-yl)methyl)-6,8-dihydro-2H,7H-spiro[furo[2,3-e]isoindole-3,4′-piperidin]-7-yl)piperidine-2,6-dione], the half-maximal degradation concentration (DC50) is over 0.5 µM and the Dmax is under 40%. Take `CC1(C)CCC(CN2CCC3(CC2)COc2c3ccc3c2CN(C2CCC(=O)NC2=O)C3=O)CC1` (centres unmarked) [Compound A19, 3-(1′-((4,4-dimethylcyclohexyl)methyl)-6-oxo-6,8-dihydro-2H,7H-spiro[furo[2,3-e]isoindole-3,4′-piperidin]-7-yl)piperidine-2,6-dione]: the DC50 was over 0.5 µM and the Dmax is under 40%.

As for `O=C1CC[C@H](N2Cc3c(ccc4c3OCC43CCN(Cc4cnn(S(=O)(=O)c5ccc(F)c(F)c5)c4)CC3)C2=O)C(=O)N1` [Compound A353, (S)-3-(1′-((1-((3,4-difluorophenyl)sulfonyl)-1H-pyrazol-4-yl)methyl)-6-oxo-6,8-dihydro-2H,7H-spiro[furo[2,3-e]isoindole-3,4′-piperidin]-7-yl)piperidine-2,6-dione], the maximal degradation (Dmax) is 40 to 60%. Take `O=C1CCC(N2Cc3c(ccc4c3OCC43CCN(Cc4cccc(N5CCCC5)c4)CC3)C2=O)C(=O)N1` (centres unmarked) [Compound A96, 3-(6-oxo-1′-(3-(pyrrolidin-1-yl)benzyl)-6,8-dihydro-2H,7H-spiro[furo[2,3-e]isoindole-3,4′-piperidin]-7-yl)piperidine-2,6-dione]: the DC50 lay within 0.05 to 0.2 µM and the Dmax was in the range of 60 to 80%. Regarding `O=C1CCC(N2Cc3c(ccc4c3OCC43CCN(Cc4cccc5ccoc45)CC3)C2=O)C(=O)N1` (centres unmarked) [Compound A115, 3-(1′-(benzofuran-7-ylmethyl)-6-oxo-6,8-dihydro-2H,7H-spiro[furo[2,3-e]isoindole-3,4′-piperidin]-7-yl)piperidine-2,6-dione], the DC50 was 0.05 to 0.2 µM and the Dmax lay in the range of 60 to 80%. As for `O=C1CCC(N2Cc3c(ccc4c3OCC43CCN(Cc4cccc5c4NC(=O)C5)CC3)C2=O)C(=O)N1` (centres unmarked) [Compound A152, 3-(6-oxo-1′-((2-oxoindolin-7-yl)methyl)-6,8-dihydro-2H,7H-spiro[furo[2,3-e]isoindole-3,4′-piperidin]-7-yl)piperidine-2,6-dione], the 50% degradation concentration (DC50) fell in the range of 0.05 to 0.2 µM and the Dmax lay in the range of 60 to 80%. Consider `O=C1CCC(N2Cc3c(ccc4c3OCC43CCN(Cc4ccn(-c5ccc(F)cc5)n4)CC3)C2=O)C(=O)N1` (centres unmarked) [Compound A322, 3-(1′-((1-(4-fluorophenyl)-1H-pyrazol-3-yl)methyl)-6-oxo-6,8-dihydro-2H,7H-spiro[furo[2,3-e]isoindole-3,4′-piperidin]-7-yl)piperidine-2,6-dione], for which the DC50 is over 0.5 µM and the greatest degradation seen (Dmax) was under 40%.

As for `O=C1CCC(N2Cc3c(ccc4c3OCC43CCN(Cc4cccc(N5CCOCC5)c4)CC3)C2=O)C(=O)N1` (centres unmarked) [Compound A97, 3-(1′-(3-morpholinobenzyl)-6-oxo-6,8-dihydro-2H,7H-spiro[furo[2,3-e]isoindole-3,4′-piperidin]-7-yl)piperidine-2,6-dione], the half-maximal degradation concentration (DC50) was over 0.5 µM and the Dmax was in the range of 40 to 60%. Turning to `O=C1CCC(N2Cc3c(ccc4c3OCC43CCN(Cc4cnn(-c5ccccc5Cl)c4)CC3)C2=O)C(=O)N1` (centres unmarked) [Compound A331, 3-(1′-((1-(2-chlorophenyl)-1H-pyrazol-4-yl)methyl)-6-oxo-6,8-dihydro-2H,7H-spiro[furo[2,3-e]isoindole-3,4′-piperidin]-7-yl) piperidine-2,6-dione], the DC50 is over 0.5 µM and the Dmax is under 40%. Take `O=C1CCC(N2Cc3c(ccc4c3OCC43CCN(Cc4cnn(-c5ccc(Cl)cc5)c4)CC3)C2=O)C(=O)N1` (centres unmarked) [Compound A314, 3-(1′-((1-(4-chlorophenyl)-1H-pyrazol-4-yl)methyl)-6-oxo-6,8-dihydro-2H,7H-spiro[furo[2,3-e]isoindole-3,4′-piperidin]-7-yl)piperidine-2,6-dione]: the DC50 is under 0.05 µM and the Dmax was in the range of 60 to 80%.

For the compound `COc1ccc(CN2CCC3(CC2)COc2c3ccc3c2CN(C2CCC(=O)NC2=O)C3=O)cc1` (centres unmarked) [Compound A211, 3-(1′-(4-methoxybenzyl)-6-oxo-6,8-dihydro-2H,7H-spiro[furo[2,3-e]isoindole-3,4′-piperidin]-7-yl)piperidine-2,6-dione], the DC50 is over 0.5 µM and the Dmax is under 40%. Turning to `O=C1CCC(N2Cc3c(ccc4c3OCC43CCN(CC4CCN(c5ccccc5)CC4)CC3)C2=O)C(=O)N1` (centres unmarked) [Compound A123, 3-(6-oxo-1′-((1-phenylpiperidin-4-yl)methyl)-6,8-dihydro-2H,7H-spiro[furo[2,3-e]isoindole-3,4′-piperidin]-7-yl)piperidine-2,6-dione], the DC50 is over 0.5 µM and the Dmax lay in the range of 40 to 60%.

For the compound `O=C1CCC(N2Cc3c(ccc4c3OCC43CCN(Cc4cccc5c4OCCO5)CC3)C2=O)C(=O)N1` (centres unmarked) [Compound A199, 3-(1′-((2,3-dihydrobenzo[b][1,4]dioxin-5-yl)methyl)-6-oxo-6,8-dihydro-2H,7H-spiro[furo[2,3-e]isoindole-3,4′-piperidin]-7-yl)piperidine-2,6-dione], the DC50 was over 0.5 µM and the Dmax lay in the range of 60 to 80%. Turning to `O=C1CCC(N2Cc3c(ccc4c3OCC43CCN(Cc4ccc(-c5cn[nH]c5)cc4)CC3)C2=O)C(=O)N1` (centres unmarked) [Compound A162, 3-(1′-(4-(1H-pyrazol-4-yl)benzyl)-6-oxo-6,8-dihydro-2H,7H-spiro[furo[2,3-e]isoindole-3,4′-piperidin]-7-yl)piperidine-2,6-dione], the half-maximal degradation concentration (DC50) is 0.05 to 0.2 µM and the maximal degradation (Dmax) lay in the range of 60 to 80%. For the compound `CC(=O)Nc1cccc(CN2CCC3(CC2)COc2c3ccc3c2CN(C2CCC(=O)NC2=O)C3=O)c1` (centres unmarked) [Compound A176, N-(3-((7-(2,6-dioxopiperidin-3-yl)-6-oxo-7,8-dihydro-2H,6H-spiro[furo[2,3-e]isoindole-3,4′-piperidin]-1′-yl)methyl)phenyl) acetamide], the DC50 is over 0.5 µM and the Dmax lay in the range of 40 to 60%. For the compound `[2H]C([2H])([2H])n1cc(-c2cccc(CN3CCC4(CC3)COc3c4ccc4c3CN([C@H]3CCC(=O)NC3=O)C4=O)c2)cn1` [Compound A291, (S)-3-(1′-(3-(1-(methyl-d3)-1H-pyrazol-4-yl)benzyl)-6-oxo-6,8-dihydro-2H,7H-spiro[furo[2,3-e]isoindole-3,4′-piperidin]-7-yl)piperidine-2,6-dione], the DC50 is under 0.05 µM and the Dmax was 60 to 80%.

Regarding `O=C1CCC(N2Cc3c(ccc4c3OCC43CCN(Cc4cncc5ccccc45)CC3)C2=O)C(=O)N1` (centres unmarked) [Compound A43, 3-(1′-(isoquinolin-4-ylmethyl)-6-oxo-6,8-dihydro-2H,7H-spiro[furo[2,3-e]isoindole-3,4′-piperidin]-7-yl)piperidine-2,6-dione], the DC50 was over 0.5 µM and the Dmax lay in the range of 40 to 60%. As to `Cn1c(=O)oc2ccc(CN3CCC4(CC3)COc3c4ccc4c3CN(C3CCC(=O)NC3=O)C4=O)cc21` (centres unmarked) [Compound A175, 3-(1′-((3-methyl-2-oxo-2,3-dihydrobenzo[d]oxazol-5-yl)methyl)-6-oxo-6,8-dihydro-2H,7H-spiro[furo[2,3-e]isoindole-3,4′-piperidin]-7-yl)piperidine-2,6-dione], the DC50 was over 0.5 µM and the Dmax was under 40%.
